Data set [1] can be described thus: abundance of the metabolite relative to the parent compound in humans. The data set is classed as in vivo, human. The following applies: relative to compound I. From the text:
(§1) Though the potency of this metabolite is lower than the parent molecule, the overall exposure and peak plasma concentration in humans is higher than seen in all tested animal species. As a consequence, dedicated pharmacology and toxicology studies have been performed with compound II. […] The compound according to formula II is described in WO2013/189771.

The target of another data set is JAK1 (Homo sapiens, UniProt P23458). Kind of data set: inhibition of JAK1 signaling by the metabolite relative to the parent. The following applies: relative to compound I.
JAK1, sequence (P23458 whole entry, species assumed): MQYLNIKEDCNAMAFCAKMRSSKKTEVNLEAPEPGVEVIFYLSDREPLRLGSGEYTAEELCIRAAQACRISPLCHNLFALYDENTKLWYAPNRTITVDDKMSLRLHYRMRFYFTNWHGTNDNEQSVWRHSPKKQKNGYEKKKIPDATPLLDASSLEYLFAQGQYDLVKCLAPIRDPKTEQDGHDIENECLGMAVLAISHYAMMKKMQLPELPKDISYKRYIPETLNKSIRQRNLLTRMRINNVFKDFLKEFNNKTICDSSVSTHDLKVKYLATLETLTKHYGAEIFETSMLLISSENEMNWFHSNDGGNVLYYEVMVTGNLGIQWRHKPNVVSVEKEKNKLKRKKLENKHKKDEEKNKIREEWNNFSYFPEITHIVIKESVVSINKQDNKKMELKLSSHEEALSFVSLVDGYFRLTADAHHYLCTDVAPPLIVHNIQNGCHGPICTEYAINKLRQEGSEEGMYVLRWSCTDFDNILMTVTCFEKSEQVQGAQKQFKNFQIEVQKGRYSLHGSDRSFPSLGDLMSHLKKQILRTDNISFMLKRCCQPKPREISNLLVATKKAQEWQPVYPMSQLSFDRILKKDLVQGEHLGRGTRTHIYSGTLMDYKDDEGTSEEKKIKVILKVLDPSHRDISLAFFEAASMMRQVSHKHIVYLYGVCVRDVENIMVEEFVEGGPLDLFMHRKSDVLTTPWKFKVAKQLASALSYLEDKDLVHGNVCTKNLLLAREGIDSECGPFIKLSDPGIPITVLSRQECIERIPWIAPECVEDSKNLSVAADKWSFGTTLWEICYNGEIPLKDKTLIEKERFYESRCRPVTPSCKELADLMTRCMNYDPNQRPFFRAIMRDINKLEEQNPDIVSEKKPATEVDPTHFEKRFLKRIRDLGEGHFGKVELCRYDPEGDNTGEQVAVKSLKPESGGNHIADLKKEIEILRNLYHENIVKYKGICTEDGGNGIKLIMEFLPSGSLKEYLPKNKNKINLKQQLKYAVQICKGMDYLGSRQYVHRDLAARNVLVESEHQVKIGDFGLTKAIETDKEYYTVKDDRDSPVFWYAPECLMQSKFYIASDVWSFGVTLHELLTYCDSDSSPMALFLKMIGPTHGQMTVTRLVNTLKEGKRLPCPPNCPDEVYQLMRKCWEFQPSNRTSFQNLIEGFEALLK
Source text: as §1

Data set [2] concerns active psoriatic arthritis. The following applies: cited from earlier work.

The values that follow come from US12329758B2, “Methods for the treatment of psoriatic arthritis” (Alfasigma S.p.A., priority 2018, dated 2025).

The structures appear in SMILES notation. Where two headings read alike, the source gives them in different places.

For the compound `Nc1nc2cccc(-c3ccc(CN4CCS(=O)(=O)CC4)cc3)n2n1` [compound II], the “abundance, fold more abundant than the parent compound” value in data set [1] was “about 10 fold”. Also, the “potency on JAK1 signaling, fold less potent than parent compound” value at JAK1 is “approximately 20 fold”.

Turning to `C[C@@H]1CCN(C(=O)CC#N)C[C@@H]1N(C)c1ncnc2[nH]ccc12` [tofacitinib], the ACR20 response rate in data set [2] (month 3, dosed at 5 mg) is given as 50%; in data set [2] (month 3, dosed at 10 mg), 61%.
